For 17 molecules, IC50 results are on record in patent US11655235B2, “Pyrrolidine and piperidine compounds” (YUHAN CORPORATION, priority 2019, dated 2023).

What all share (assay type): biochemical
The target of assay [1] is T1, recombinant human DPP9 (Homo sapiens, UniProt Q86TI2).
T1 construct: purchased R&D Systems
Description: DPP9 inhibition, fluorogenic substrate H-Gly-Pro-AMC. Conditions: recombinant human DPP9. Summed up:
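Enzyme per reaction: 50 ng DPP9, 20 ng DPP8, 10 ng each DPP7 and PREP. Compounds were serially diluted (8 points, up to 0.5% DMSO) and incubated at 25 °C.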

Assay [2] has as its target DPP4 (Homo sapiens, UniProt P27487). Description: DPP4 inhibition, fluorogenic substrate H-Gly-Pro-AMC. Particulars: recombinant human DPP4. Set-up: purchased R&D Systems.
Assay [3] deals with T2, Recombinant human FAP (Homo sapiens, UniProt Q12884).
T2 construct: purchased R&D systems
T2 sequence (Q12884 1-760): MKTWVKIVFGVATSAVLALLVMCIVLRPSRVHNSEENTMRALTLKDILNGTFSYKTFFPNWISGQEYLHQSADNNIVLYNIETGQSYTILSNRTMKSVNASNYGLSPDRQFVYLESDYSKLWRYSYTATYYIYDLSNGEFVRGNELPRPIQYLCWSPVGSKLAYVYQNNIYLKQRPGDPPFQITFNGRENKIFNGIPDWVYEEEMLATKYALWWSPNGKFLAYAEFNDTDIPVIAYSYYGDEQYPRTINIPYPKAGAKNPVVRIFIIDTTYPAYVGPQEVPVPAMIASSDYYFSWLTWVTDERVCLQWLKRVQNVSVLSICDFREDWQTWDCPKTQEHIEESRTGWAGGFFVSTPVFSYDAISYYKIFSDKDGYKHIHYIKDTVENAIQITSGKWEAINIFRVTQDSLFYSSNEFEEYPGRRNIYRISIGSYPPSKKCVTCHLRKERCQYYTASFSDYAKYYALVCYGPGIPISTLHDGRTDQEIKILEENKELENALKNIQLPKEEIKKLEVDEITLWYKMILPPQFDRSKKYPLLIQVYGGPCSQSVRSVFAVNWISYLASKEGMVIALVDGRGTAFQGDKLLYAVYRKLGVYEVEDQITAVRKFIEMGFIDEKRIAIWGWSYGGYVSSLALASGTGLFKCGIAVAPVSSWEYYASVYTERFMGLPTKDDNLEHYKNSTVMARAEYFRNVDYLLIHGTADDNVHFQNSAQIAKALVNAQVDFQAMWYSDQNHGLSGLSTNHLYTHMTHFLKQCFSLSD
Kind of assay: FAP FRET assay, FGF21-sequence FRET peptide substrate. Particulars: FRET peptide with human FGF21 sequence, 6 μM, 37° C. The method, boiled down:
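Recombinant human FAP, 10 ng per reaction, in 50 mM HEPES pH 7.2 with 150 mM NaCl, 0.1 mg/ml BSA, 1 mM EDTA; HyLite Fluor 488/QXL 520 FRET peptide of human FGF21 sequence at 6 μM final, ≤0.1% DMSO, 37° C. IC50 from 8-point curves by four-parameter logistic fit.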

pIC50: −log10 of the molar value.

Broadly, the pIC50 is −log10 of the IC50, conventionally taken in molar units.

T1 sequence (Q86TI2 whole entry): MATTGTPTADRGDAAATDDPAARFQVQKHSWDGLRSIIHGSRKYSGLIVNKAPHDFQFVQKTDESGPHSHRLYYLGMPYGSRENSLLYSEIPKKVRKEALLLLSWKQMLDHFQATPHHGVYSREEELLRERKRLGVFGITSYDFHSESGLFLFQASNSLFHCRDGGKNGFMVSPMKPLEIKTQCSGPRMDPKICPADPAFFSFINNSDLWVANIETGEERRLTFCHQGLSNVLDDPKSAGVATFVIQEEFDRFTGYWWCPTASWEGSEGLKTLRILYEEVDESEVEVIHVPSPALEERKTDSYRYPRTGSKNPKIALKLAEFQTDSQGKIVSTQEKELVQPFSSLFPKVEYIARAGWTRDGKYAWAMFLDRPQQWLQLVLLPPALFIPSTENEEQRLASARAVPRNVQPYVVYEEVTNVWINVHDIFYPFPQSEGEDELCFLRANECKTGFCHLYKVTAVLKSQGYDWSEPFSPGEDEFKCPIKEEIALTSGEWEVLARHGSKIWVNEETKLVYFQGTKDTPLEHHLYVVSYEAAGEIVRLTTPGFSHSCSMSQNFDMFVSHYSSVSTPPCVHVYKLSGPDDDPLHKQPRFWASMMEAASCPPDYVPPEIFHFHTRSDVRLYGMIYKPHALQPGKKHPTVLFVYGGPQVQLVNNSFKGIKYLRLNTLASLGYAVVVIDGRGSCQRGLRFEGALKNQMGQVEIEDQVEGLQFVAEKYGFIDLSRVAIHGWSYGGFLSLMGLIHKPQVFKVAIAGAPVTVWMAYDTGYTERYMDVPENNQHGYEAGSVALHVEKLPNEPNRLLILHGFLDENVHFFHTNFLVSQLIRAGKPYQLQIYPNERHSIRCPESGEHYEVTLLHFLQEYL
DPP4, sequence (P27487 whole entry): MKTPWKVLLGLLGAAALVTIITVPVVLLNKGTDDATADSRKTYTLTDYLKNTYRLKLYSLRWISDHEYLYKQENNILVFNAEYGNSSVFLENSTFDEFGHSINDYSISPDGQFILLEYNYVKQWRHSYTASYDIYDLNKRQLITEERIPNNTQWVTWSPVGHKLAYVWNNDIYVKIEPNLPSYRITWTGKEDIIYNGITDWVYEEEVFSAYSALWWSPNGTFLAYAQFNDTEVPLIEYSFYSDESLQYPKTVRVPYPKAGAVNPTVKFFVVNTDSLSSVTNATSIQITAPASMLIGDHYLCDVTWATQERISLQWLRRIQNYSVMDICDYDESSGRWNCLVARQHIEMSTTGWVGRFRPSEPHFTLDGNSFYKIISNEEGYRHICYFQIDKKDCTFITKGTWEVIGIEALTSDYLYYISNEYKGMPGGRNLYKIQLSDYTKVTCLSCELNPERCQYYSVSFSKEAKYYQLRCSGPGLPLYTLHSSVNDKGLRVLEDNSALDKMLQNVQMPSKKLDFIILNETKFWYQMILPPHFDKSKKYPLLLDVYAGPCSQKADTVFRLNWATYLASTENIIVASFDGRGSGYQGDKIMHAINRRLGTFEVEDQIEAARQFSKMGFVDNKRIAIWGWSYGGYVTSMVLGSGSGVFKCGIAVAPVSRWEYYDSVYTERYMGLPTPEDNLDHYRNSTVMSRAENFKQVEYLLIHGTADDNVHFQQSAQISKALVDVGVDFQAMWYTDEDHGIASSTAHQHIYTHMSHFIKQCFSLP

With `N#C[C@@H]1C[C@H](F)CN1C(=O)CN1CC[C@H](Nc2ccc(OC(F)(F)F)c3ncccc23)C1` [Example 266, (2S,4S)-4-fluoro-1-[2-[(3S)-3-[[8-(trifluoromethoxy)-5-quinolyl]amino]pyrrolidin-1-yl]acetyl]pyrrolidine-2-carbonitrile], the negative logarithm of the IC50 (pIC50) in assay [1] is 5.36; in assay [2], 5.88; in assay [3] it was 8.92.

For the molecule `N#C[C@@H]1C[C@H](F)CN1C(=O)CN1CCC(Nc2cccc3cnc(Cl)cc23)CC1` [Example 352, (2S,4S)-1-[2-[4-[(3-chloro-5-isoquinolyl)amino]-1-piperidyl]acetyl]-4-fluoro-pyrrolidine-2-carbonitrile], the pIC50 in assay [1] was 5.01; in assay [2], below 5.00; in assay [3], 8.60.

As to `COc1cc2c(NC3CCN(CC(=O)N4C[C@@H](F)C[C@H]4C#N)CC3)cccc2cn1` [Example 355, (2S,4S)-4-fluoro-1-[2-[4-[(3-methoxy-5-isoquinolyl)amino]-1-piperidyl]acetyl]pyrrolidine-2-carbonitrile], the negative-log IC50 (pIC50) is 5.01 in assay [1], 5.28 in assay [2] and 8.60 in assay [3].

As to `N#C[C@@H]1CCCN1C(=O)CN1CC[C@H](Nc2ccc(F)c3ncccc23)C1` [Example 244, (2S)-1-[2-[(3S)-3-[(8-fluoro-5-quinolyl)amino]pyrrolidin-1-yl]acetyl]pyrrolidine-2-carbonitrile], the values for the negative-log IC50 (pIC50) in assay [1], in assay [2] and in assay [3] were 4.50, below 5.00 and 8.25, respectively.

For `COc1cnc2cccc(N[C@H]3CCN(CC(=O)N4CCC[C@H]4C#N)C3)c2c1` [Example 233, (2S)-1-[2-[(3S)-3-[(3-methoxy-5-quinolyl)amino]pyrrolidin-1-yl]acetyl]pyrrolidine-2-carbonitrile], the pIC50 in assay [1] is 4.67; in assay [2], 4.42; in assay [3], 9.15.

On to `N#Cc1ccc(N[C@H]2CCN(CC(=O)N3CCC[C@H]3C#N)C2)c2cccnc12` [Example 247, 5-[[(3S)-1-[2-oxo-2-[(2S)-2-cyanopyrrolidin-1-yl]ethyl]pyrrolidin-3-yl]amino]quinoline-8-carbonitrile], for which the pIC50 in assay [1] was below 4.00; in assay [2], below 5.00; in assay [3] it was 8.70.

Turning to `N#C[C@@H]1CCCN1C(=O)CN1CC[C@H](Nc2ccc(C(F)(F)F)c3ncccc23)C1` [Example 245, (2S)-1-[2-[(3S)-3-[[8-(trifluoromethyl)-5-quinolyl]amino]pyrrolidin-1-yl]acetyl]pyrrolidine-2-carbonitrile], the negative logarithm of the IC50 (pIC50) is below 4.00 in assay [1], below 5.00 in assay [2] and 8.92 in assay [3].

As to `COc1cnc2cccc(NC3CCN(CC(=O)N4C[C@@H](F)C[C@H]4C#N)CC3)c2c1` [Example 348, (2S,4S)-4-fluoro-1-[2-[4-[(3-methoxy-5-quinolyl)amino]-1-piperidyl]acetyl]pyrrolidine-2-carbonitrile], the pIC50 in assay [1] was 5.21; in assay [2] it was 5.44; in assay [3] it was 8.41.

`N#C[C@@H]1C[C@H](F)CN1C(=O)CN1CCC(Nc2ccc(C(F)(F)F)c3ncccc23)CC1` [Example 334, (2S,4S)-4-fluoro-1-[2-[4-[[8-(trifluoromethyl)-5-quinolyl]amino]-1-piperidyl]acetyl]pyrrolidine-2-carbonitrile]: the negative-log IC50 (pIC50) in assay [1] is 5.96; in assay [2] it was 5.11; in assay [3] it was 8.59.

With `N#C[C@@H]1C[C@H](F)CN1C(=O)CN1CCC(Nc2ccc(OC(F)(F)F)c3ncccc23)CC1` [Example 347, (2S,4S)-4-fluoro-1-[2-[4-[[8-(trifluoromethoxy)-5-quinolyl]amino]-1-piperidyl]acetyl]pyrrolidine-2-carbonitrile], the pIC50 was 5.53 in assay [1], 5.58 in assay [2] and 8.24 in assay [3].

In the case of `N#C[C@@H]1C[C@H](F)CN1C(=O)CN1CC[C@H](Nc2cccc3ncc(F)cc23)C1` [Example 255, (2S,4S)-4-fluoro-1-[2-[(3S)-3-[(3-fluoro-5-quinolyl)amino]pyrrolidin-1-yl]acetyl]pyrrolidine-2-carbonitrile], the pIC50 was 5.13 in assay [1], 5.62 in assay [2] and 9.00 in assay [3].

As to `N#C[C@@H]1C[C@H](F)CN1C(=O)CN1CC[C@H](Nc2ccc(OCc3ccccc3)c3ncccc23)C1` [Example 268, (2S,4S)-4-fluoro-1-[2-[(3S)-3-[(8-benzyloxy-5-quinolyl)amino]pyrrolidin-1-yl]acetyl]pyrrolidine-2-carbonitrile], the negative-log IC50 (pIC50) was 6.06 in assay [1], 6.24 in assay [2] and 9.15 in assay [3].

As for `Cc1ccc2nccc(OC3CCN(CC(=O)N4C[C@@H](F)C[C@H]4C#N)CC3)c2c1` [Example 410, (2S,4S)-4-fluoro-1-[2-[4-[(6-methyl-4-quinolyl)oxy]-1-piperidyl]acetyl]pyrrolidine-2-carbonitrile], the negative logarithm of the IC50 (pIC50) is 4.75 in assay [1], below 5.00 in assay [2] and 8.82 in assay [3].

With `N#C[C@@H]1C[C@H](F)CN1C(=O)CN1CC[C@H](Nc2cccc3ncccc23)C1` [Example 228, (2S,4S)-4-fluoro-1-[2-[(3S)-3-(5-quinolylamino)pyrrolidin-1-yl]acetyl]pyrrolidine-2-carbonitrile], the pIC50 was 5.13 in assay [1], below 4.00 in assay [2] and 8.52 in assay [3].

Take `N#Cc1cnc2cccc(N[C@H]3CCN(CC(=O)N4CCC[C@H]4C#N)C3)c2c1` [Example 232, 5-[[(3S)-1-[2-oxo-2-[(2S)-2-cyanopyrrolidin-1-yl]ethyl]pyrrolidin-3-yl]amino]quinoline-3-carbonitrile]: the figures for the negative-log IC50 (pIC50) in assay [1], in assay [2] and in assay [3] were 4.54, below 5.00 and 8.74, respectively.

Turning to `N#C[C@@H]1C[C@H](F)CN1C(=O)CN1CCC(Nc2cccc3ncc(F)cc23)CC1` [Example 349, (2S,4S)-4-fluoro-1-[2-[4-[(3-fluoro-5-quinolyl)amino]-1-piperidyl]acetyl]pyrrolidine-2-carbonitrile], the results for the negative logarithm of the IC50 (pIC50) in assay [1], in assay [2] and in assay [3] were 5.30, 5.72 and 8.40, respectively.

As for `COc1ccc(N[C@H]2CCN(CC(=O)N3C[C@@H](F)C[C@H]3C#N)C2)c2cccnc12` [Example 263, (2S,4S)-4-fluoro-1-[2-[(3S)-3-[(8-methoxy-5-quinolyl)amino]pyrrolidin-1-yl]acetyl]pyrrolidine-2-carbonitrile], the pIC50 was 5.42 in assay [1], 6.10 in assay [2] and 8.72 in assay [3].
